Assay results: the supplement of paper PMC9938120

Experiments:
Experiment in all cases: drug sensitivity score (DSS3, normalised partial AUC of % inhibition dose-response) (DSS (score)); higher = more sensitive (stronger inhibition of viability); extreme values may be limits of the assay
FMOC06 = patient-derived mucinous ovarian cancer cells; conditions: 72 h; library: FO5A; assay format: 2D, 384-well, CellTiter-Glo
How it was run: (§1)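 Early-passage (under 10) patient-derived ovarian cancer cells were dispensed onto 384-well flat clear-bottom plates pre-plated with compounds at five concentrations spanning a 10,000-fold range, then incubated 72 h at 37 °C, 5% CO2. Viability was read with CellTiter-Glo, and the data were processed in Breeze. The drug sensitivity score is a partial area under the percent-inhibition dose-response curve divided by the log of the upper asymptote, with higher values meaning greater sensitivity.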

FMOC02_1 = patient-derived low-grade serous ovarian cancer cells; conditions: 72 h; library: FO5A; assay format: 2D, 384-well, CellTiter-Glo
How it was run: as §1

FMOC02_3 = patient-derived low-grade serous ovarian cancer cells; conditions: 72 h; library: FO5A; assay format: 2D, 384-well, CellTiter-Glo
How it was run: as §1

FMOC03 = patient-derived mucinous ovarian cancer cells; conditions: 72 h; library: FO5A; assay format: 2D, 384-well, CellTiter-Glo
How it was run: as §1

FMOC02_2 = patient-derived low-grade serous ovarian cancer cells; conditions: 72 h; library: FO5A; assay format: 2D, 384-well, CellTiter-Glo
How it was run: as §1

FMOC28 = patient-derived low-grade serous ovarian cancer cells; conditions: 72 h; library: FO5A; assay format: 2D, 384-well, CellTiter-Glo
How it was run: as §1

FMOC09 = patient-derived high-grade serous ovarian cancer cells; conditions: 72 h; library: FO5A; assay format: 2D, 384-well, CellTiter-Glo
How it was run: as §1

FMOC14 = patient-derived high-grade serous ovarian cancer cells; conditions: 72 h; library: FO5A; assay format: 2D, 384-well, CellTiter-Glo
How it was run: as §1

FMOC17 = patient-derived low-grade serous ovarian cancer cells; conditions: 72 h; library: FO5A; assay format: 2D, 384-well, CellTiter-Glo
How it was run: as §1

FMOC25_2 = patient-derived low-grade serous ovarian cancer cells; conditions: 72 h; library: FO5A; assay format: 2D, 384-well, CellTiter-Glo
How it was run: as §1

FMOC04 = patient-derived high-grade serous ovarian cancer cells; conditions: 72 h; library: FO5A; assay format: 2D, 384-well, CellTiter-Glo
How it was run: as §1

FMOC22 = patient-derived mucinous ovarian cancer cells; conditions: 72 h; library: FO5A; assay format: 2D, 384-well, CellTiter-Glo
How it was run: as §1

FMOC25_1 = patient-derived low-grade serous ovarian cancer cells; conditions: 72 h; library: FO4B; assay format: 2D, 384-well, CellTiter-Glo
How it was run: as §1

FMOC11 = patient-derived high-grade serous ovarian cancer cells; conditions: 72 h; library: FO5A; assay format: 2D, 384-well, CellTiter-Glo
How it was run: as §1

FMOC27 = patient-derived low-grade serous ovarian cancer cells; conditions: 72 h; library: FO5A; assay format: 2D, 384-well, CellTiter-Glo
How it was run: as §1

FMOC24 = patient-derived high-grade serous ovarian cancer cells; conditions: 72 h; library: FO5A; assay format: 2D, 384-well, CellTiter-Glo
How it was run: as §1

| SMILES | drug sensitivity score (FMOC06) | drug sensitivity score (FMOC02_1) | drug sensitivity score (FMOC02_3) | drug sensitivity score (FMOC03) | drug sensitivity score (FMOC02_2) | drug sensitivity score (FMOC28) | drug sensitivity score (FMOC09) | drug sensitivity score (FMOC14) | drug sensitivity score (FMOC17) | drug sensitivity score (FMOC25_2) | drug sensitivity score (FMOC04) | drug sensitivity score (FMOC22) | drug sensitivity score (FMOC25_1) | drug sensitivity score (FMOC11) | drug sensitivity score (FMOC27) | drug sensitivity score (FMOC24) |
| --- | --- | --- | --- | --- | --- | --- | --- | --- | --- | --- | --- | --- | --- | --- | --- | --- |
| Cc1cc(Nc2ncc(Cl)c(Nc3ccccc3S(=O)(=O)C(C)C)n2)c(OC(C)C)cc1C1CCNCC1 [Ceritinib] | 3.7 | 2.6 | 4.3 | 1.5 | 4.2 | 0 | 3.1 | 0 | 2.4 | 4.8 | 3.15 | 1.7 | 0.6 | 0.5 | 2.2 | 0.35 |
| CN(C)C(=N)NC(=N)N [Metformin] | 0 | 0 | 0 | 0 | 0 | 0 | 0 | 0 | 0 | 0 | 0 | 0 | 0 | 0 | 0 | 0 |
| CN(C)C(=O)c1ccc(S(=O)(=O)c2ccc(NC(=O)[C@@](C)(O)C(F)(F)F)c(Cl)c2)cc1 [AZD7545] | 0 | 0 | 0 | 0 | 0 | 2.4 | 0 | 0.4 | 0 | 0 | 0 | 0.8 | 0 | 0 | 0 | 0 |
| O=C(NC[C@H](O)CN1CCc2ccccc2C1)c1cc(NC2COC2)ncn1 | 0 | 0 | 1.3 | 0 | 0 | 0 | 0.3 | 0 | 0 | 0.2 | 0 | 1.8 | 1 | 0 | 1.1 | 0.5 |
| O=c1[nH]cc(F)c(=O)[nH]1 [Fluorouracil] | 0 | 2.3 | 3.6 | 0 | 1.8 | 1.2 | 0 | 0 | 1 | 4.3 | 2.65 | 2.2 | 3.1 | 0 | 0 | 0.1 |
| CCCCCCCCCCCCCCCCCCOP(=O)([O-])OC1CC[N+](C)(C)CC1 [Perifosine] | 0.1 | 0 | 0 | 0 | 0 | 0 | 0 | 0 | 0 | 0.5 | 0 | 0 | 0 | 0 | 0 | 3.35 |
| C[C@@H](C(=O)O)c1ccc(-c2ccccc2)c(F)c1 [Tarenflurbil] | 0 | 0 | 0.3 | 0 | 0 | 0 | 0 | 0 | 0 | 0 | 0 | 0 | 0 | 0 | 0 | 1.05 |
| COc1ccc(COc2cc3oc(=O)c4cc(C(C)O)ccc4c3cc2OC)cc1 (stereo not drawn) [Palomid-529] | 0 | 0 | 0 | 0 | 2.2 | 1.4 | 0.4 | 0 | 0 | 0.1 | 0 | 0 | 0 | 0.4 | 0 | 0 |
| Cn1cc(-c2ccc(F)c(C(F)(F)F)c2)nc1C1CCN(c2ncnc3[nH]ncc23)CC1 | 0 | 3.1 | 5.4 | 0 | 3.9 | 3.8 | 0 | 0 | 0.6 | 5.6 | 0 | 0 | – | 0 | 0.1 | 0 |
| COCCNCc1ccc(-c2cc3nccc(Oc4ccc(NC(=S)NC(=O)Cc5ccc(F)cc5)cc4F)c3s2)nc1 [Glesatinib] | 0 | 0 | 0 | 0 | 0 | 2.9 | 0 | 0.2 | 0 | 0 | 0 | 0 | – | 0 | 0 | 0.6 |
| CC#CC(=O)N1CC[C@@H](n2c(=O)n(-c3ccc(Oc4ccccc4)cc3)c3c(N)ncnc32)C1 [Tirabrutinib] | 0 | 3.9 | 3.5 | 1.8 | 3.9 | 0 | 0 | 0 | 2.6 | 3.5 | 0 | 0 | – | 1.6 | 1.1 | 0 |
| C[C@H]1CN(C2COC2)CCN1c1ccc(Nc2cc(-c3ccnc(N4CCn5c(cc6c5CC(C)(C)C6)C4=O)c3CO)cn(C)c2=O)nc1 [GDC-0853] | 0 | 0 | 0 | 0 | 0 | 0.4 | 0 | 0 | 0 | 0 | 0 | 0 | – | 0 | 0 | 0 |
| O=C(Nc1cnn2ccc(N3CCC[C@@H]3c3cc(F)ccc3F)nc12)N1CC[C@H](O)C1 [Larotrectinib] | 0 | 0 | 0 | 0 | 0 | 0 | 0 | 0 | 0 | 0 | 0 | 0 | – | 0 | 0 | 0 |
| Cc1ccc(C(=O)Nc2cccc(C(F)(F)F)c2)cc1Nc1nc(-c2cccnc2)nc2c1cnn2C [NVP-BHG712] | 7.3 | 6.2 | 3.3 | 5.2 | 3 | 4.8 | 3 | 3.3 | 4.6 | 0 | 0 | 3.4 | – | 4.7 | 1.6 | 7.9 |
| CC(O)c1cc(C(=O)N[C@@H](C)Cn2ccc(-c3ccc(C#N)c(Cl)c3)n2)n[nH]1 (stereo partly drawn) [ODM-201] | 0.7 | 0 | 0 | 0.4 | 0 | 0 | 0.9 | 0 | 0 | 0.5 | 0 | 0 | – | 0 | 0 | 0 |
| CNC(=O)c1ccc(N2C(=S)N(c3cnc(C#N)c(C(F)(F)F)c3)C(=O)C23CCC3)cc1F [Apalutamide] | 0 | 0 | 0 | 0 | 0 | 3.4 | 0 | 0 | 0 | 0 | 0 | 0 | – | 0 | 0 | 0.45 |
| Cc1nc2cccc(N)c2c(=O)n1C1CCC(=O)NC1=O (stereo not drawn) [CC122] | 0 | 0 | 0.4 | 0 | 0 | 2.5 | 0 | 0.2 | 0.5 | 0 | 0 | 0 | – | 0 | 0.1 | 0 |
| COc1cc(C)[nH]c(=O)c1CNC(=O)c1c(C)n([C@H](C)C2CCOCC2)c2ccccc12 [CPI-360] | 0 | 0 | 0 | 0 | 0.1 | 3.4 | 0 | 0 | 0 | 0 | 0.05 | 0 | – | 0 | 0 | 0 |
| CC#CC(=O)N1CCC[C@H]1c1nc(-c2ccc(C(=O)Nc3ccccn3)cc2)c2c(N)nccn12 [Acalabrutinib] | 2.6 | 0.3 | 0.7 | 0 | 0 | 0.5 | 0.8 | 0 | 2.2 | 0 | 0.6 | 0 | – | 0.2 | 0 | 0 |
| Cc1ccc(=O)n(-c2ccccc2)c1 [Pirfenidone] | 0 | 0 | 0 | 0 | 0 | 0 | 0 | 0 | 0.6 | 0 | 0 | 0 | – | 0.1 | 0 | 0 |
| Cc1cc(F)c(C(=O)Nc2cccc(-c3nncn3C(C)C)n2)cc1-n1cnc(C2CC2)c1 [Selonsertib] | 0 | 0 | 0 | 0 | 0 | 0 | 0 | 0 | 1.5 | 0 | 0 | 0 | – | 0 | 0 | 0.6 |
| COc1cc(N2CCC(N3CCN(C)CC3)CC2)ccc1Nc1ncc(Cl)c(Nc2ccccc2P(C)(C)=O)n1 [Brigatinib] | 4.7 | 4.4 | 3.7 | 0.9 | 4.3 | 4.8 | 3.8 | 1.7 | 2.9 | 6.4 | 1.75 | 0.5 | – | 1 | 1.7 | 2.8 |
| CC(C)Oc1ccc(-c2nn([C@@H](C)c3oc4ccc(F)cc4c(=O)c3-c3cccc(F)c3)c3ncnc(N)c23)cc1F [TGR-1202] | 0.3 | 1.6 | 2 | 0 | 1.1 | 4.6 | 0 | 1.7 | 3.5 | 0.1 | 0.05 | 0 | – | 0 | 0.1 | 0.2 |
| C[C@H]1CNCCCN1S(=O)(=O)c1cccc2cncc(F)c12 [Ripasudil] | 0 | 0 | 0 | 0 | 0 | 0 | 0 | 0 | 0 | 0 | 0 | 0 | – | 0 | 0 | 0 |
